# Results as given in patent US20230025280A1, “PH RESPONSIVE COMPOSITIONS, FORMULATIONS, AND METHODS OF IMAGING A TUMOR” (ONCONANO MEDICINE, INC, priority 2019, published 2023).
# Values joined by “and” are separate entries in the source; they are usually repeats but may differ in a detail not shown here. Equal values may be shown once. “Also recorded” adds a separate entry of the source.
# Legend:
# [1] = tested on: tumor positive surgical margins; assay: Fluorescence detection of tumor positive surgical margins versus final histopathology; type: in vivo, human; parameters: key to Histology vs. Fluorescence Correlation: TP = true positive; TN = true negative; FP = false positive; conditions: for Histology vs. Fluorescence Correlation / Surgical Margin by Fluorescence: per patient
# From the text: Tumor specimens were processed for histology according to the standard pathology practice used in clinical cancer care. Diagnosis on margins, selected histological features necessary for clinical decision making were provided. Fluorescence images were collected from the tumor and lymph node specimens and study-related biopsies. Margin width and number of positive margins were noted and correlated to the location of fluorescence in the margins. From this, the correlation between Compound 1 fluorescence and histopathology were calculated.
# In a total of 24 patients (HNSCC:13; BC:11), 9 patients (HNSCC:6; BC:3) had histologically confirmed tumor positive surgical margins that were undetected during SOC surgery. Fluorescence guided margin assessment was performed on a per-patient basis. Compound 1 imaging visualized all of these surgical margin patients yielding 100% sensitivity. […] There were 5 of 15 false positives (specificity of 67%), in which fluorescence detected tissue was not confirmed to be tumor by histopathological assessment. 5 of 14 (36%) patients had fluorescent tissues that were negative for tumor (PPV: 64%).
# In this Phase 1 study, the intraoperative and postoperative imaging data was used for a preliminary analysis of the diagnostic performance of Compound 1. Performance parameters such as MFI, CNR, and TBR were calculated in vivo and in tissue slices to characterize the ability of Compound 1 to delineate tumor tissue from background. Sensitivity and specificity for detecting tumor tissue from the adjacent normal tissue was evaluated using tissue specimen fluorescence and presented as a ROC curve. The sensitivity, specificity, and PPV of Compound 1 fluorescence in detecting pathology confirmed tumor positive margins were obtained at the patient level.
# [2] = tested on: breast cancer, HNSCC, prostate cancer, and ovarian cancer; assay: Phase 2 imaging of tumors 3-6 hours post dosing with multiple NIR cameras; type: in vivo, human
# Procedure: The study also utilized data collected from different NIR cameras and from multiple sites. All patients received a single I.V. dose of Compound 1, followed by routine surgery approximately 3-6 hours after infusion of Compound 1. Pre-excision and post-excision intraoperative and backtable visualization a tumor from a breast cancer patient (101-001; UPenn; VisionSense NIR camera) dosed with Compound 1 (2 mg/kg) 6±3 hr prior to surgery and an HNSCC cancer patient (102-007; UTSW; NOVADAQ SPY Elite NIR camera) dosed with Compound 1 (3 mg/kg) 6±3 hr prior to surgery are shown in FIG. 22. In each case, white light imaging of the pre- or post-excised tumor/specimen is juxtaposed with an overlay of the fluorescence observed and the white light image, indicating the presence of the tumor. Intraoperative/in vivo imaging of prostate cancer from two patients (102-008 and 102-009; UTSW; Da Vinci Firefly NIR camera with updated software/hardware) dosed with Compound 1 (3 mg/kg) 6±3 hr prior to excision of the tumor and the imaging of wound bed after excision of the tumor are shown in FIG. 23. In each case, white light imaging of the pre-excised tumor/specimen and the surgical wound bed are juxtaposed with images of the fluorescence observed. […] A tumor from a patient (101-005) with ovarian cancer dosed with Compound 1 (3 mg/kg, 6±3 hr) was imaged in vivo pre-excision as shown in FIG. 24. A white light image juxtaposed with an overlay of the fluorescence observed and the white light image, indicating the presence of the tumor.
# [3] = Phase 1 safety assessment; type: in vivo, human
# Procedure: Phase 1a was a dose-finding study performed in 5 cohorts of 3 patients each. The dose levels evaluated were […], and 1.2 mg/kg, in this sequence. Inter-cohort dose escalation took place after the last patient in the previous cohort completed the Day 10 safety assessment. Safety, PK, and imaging feasibility were evaluated in both the Phase 1a and 1b portions of the study. Patient safety is assessed during the study and for up to 10 days post-dose.
# solid neoplasia = assay: Tumor imaging in dogs with solid neoplasia; type: in vivo, dog
# Procedure: Materials and methods: After evaluation and recruitment for the study, dog-patients underwent (A) pre-operation analysis to identify possible types of lesion, and (B) Compound 1 tracer was administrated at 0.5 to 2.0 mg/kg, 18-78 hours prior to surgery. During the surgery (C) intra-operative imaging was performed using a Hamamatsu PDE or custom NIR camera before and after tumor removal (or after limb amputations). Resected tissues were (D) imaged with a LI-COR Pearl Imaging station and tumor-to-normal-tissue ratios were calculated accordingly. The resected tissues were then (E) preserved for histopathology validation. Safety was assessed separately in terms of adverse effects through physical examinations, laboratory tests and the recording of adverse events from infusion through discharge from hospital.
# Results: A summary of the data from spayed or neutered dog patients that were recruited for the study is shown below (Table 16). Results from a total of seven dogs of different breeds, aged 4-12 years, body weights ranging from 20.9-59.5 kg, and with a range of tumors ware presented, including instances where more than one tumor was present. Doses studied thus far ranged from 0.5-2.0 mg/kg. […] Both acute and chronic adverse effects were monitored from the time of injection through discharge of the animals from the hospital and follow-up appointments (to remove sutures) and noted.
# [4] = 24 patients (HNSCC:13; BC:11), per-patient
substance,measurement,setting,value
PEO90-140-b-P(DBA60-150-r-ICG0-3-r-AMA0-3) [Compound 1],Histology vs. Fluorescence Correlation,"[1]; 0.1 mg/kg, HNSCC",TP (2×) and TN
same,Surgical Margin by Fluorescence,"[1]; 0.1 mg/kg, HNSCC",Positive; also recorded: Negative
same,Histology vs. Fluorescence Correlation,"[1]; 0.3 mg/kg, BC",TP and TN (2×)
same,Surgical Margin by Fluorescence,"[1]; 0.3 mg/kg, BC",Positive; also recorded: Negative
same,Histology vs. Fluorescence Correlation,"[1]; 0.5 mg/kg, BC",TN
same,Surgical Margin by Fluorescence,"[1]; 0.5 mg/kg, BC",Negative
same,Histology vs. Fluorescence Correlation,"[1]; 0.5 mg/kg, HNSCC",TN and TP
same,Surgical Margin by Fluorescence,"[1]; 0.5 mg/kg, HNSCC",Negative; also recorded: Positive
same,Histology vs. Fluorescence Correlation,"[1]; 0.8 mg/kg, BC",TN and TP
same,Surgical Margin by Fluorescence,"[1]; 0.8 mg/kg, BC",Negative; also recorded: Positive
same,Histology vs. Fluorescence Correlation,"[1]; 0.8 mg/kg, HNSCC",FP
same,Surgical Margin by Fluorescence,"[1]; 0.8 mg/kg, HNSCC",Positive
same,Histology vs. Fluorescence Correlation,"[1]; 1.2 mg/kg, BC",TN (2×) and FP (2×) and TP
same,Surgical Margin by Fluorescence,"[1]; 1.2 mg/kg, BC",Negative; also recorded: Positive
same,Histology vs. Fluorescence Correlation,"[1]; 1.2 mg/kg, CRC",TN
same,Surgical Margin by Fluorescence,"[1]; 1.2 mg/kg, CRC",Negative
same,Histology vs. Fluorescence Correlation,"[1]; 1.2 mg/kg, EC",TN
same,Histology vs. Fluorescence Correlation,"[1]; 1.2 mg/kg, HNSCC",TP (3×) and FP (2×) and TN (2×)
same,Surgical Margin by Fluorescence,"[1]; 1.2 mg/kg, HNSCC",Positive; also recorded: Negative
same,Fluorescence in patients with histologically negative margin,[1]; 2 of 3 EC and 1 of 3 CRC patients,negative
same,PPV for surgical margin patients,[1]; [4],64%
same,Sensitivity for tumor positive surgical margin patients,[1]; [4],100%
same,Specificity for surgical margin patients,[1]; [4],67%
same,Patients with false positive fluorescence margins,[1]; BC,2
same,Sensitivity for positive margin patients,[1]; BC,100%
same,Specificity for positive margin patients,[1]; BC,75%
same,Patients with false positive fluorescence margins,[1]; HNSCC,3
same,Sensitivity for positive margin patients,[1]; HNSCC,100%
same,Specificity for positive margin patients,[1]; HNSCC,57%
same,False negatives in surgical margin detection,[1]; HNSCC and BC,no false negatives
same,False positives (fluorescent tissue not confirmed tumor by histopathology),"[1]; HNSCC and BC, per-patient",5 of 15
same,Histologically proven tumor positive surgical margins detected,"[1]; HNSCC:6, BC:3",9 out of 9 and 9
same,Intraoperative fluorescence in prostate cancer,"[2]; 3 mg/kg, 6±3 hr, Da Vinci Firefly camera",fluoresced intraoperatively
same,Fluorescence in the surgical bed after prostate tumor excision,"[2]; 3 mg/kg, 6±3 hr, negative margins confirmed through pathology",No fluorescence was detected
same,Fluorescence in BC and HNSCC tumors,"[2]; 3-5 hour dose schedule timing, SPY Elite camera",verified in all visible BC and HNSCC tumors
same,Ability to image tumors 3-6 hours after I.V. injection,"[2]; Phase 2, breast cancer, HNSCC, prostate cancer, ovarian cancer, 2-3 mg/kg",demonstrated
same,Safety profile,"[3]; Phase 1a, 0.1 to 1.2 mg/kg",comparable at all the dose levels studied and did not raise any specific safety concerns
same,Tolerability,"[3]; Phase 1b, 1.2 mg/kg",well tolerated
same,Fluorescent signals in diseased tissues,"solid neoplasia; 7 dogs, 0.5-2.0 mg/kg, 24 or 72 hr before surgery",fluorescent signals were observed where expected for diseased tissues
same,Detection of occult disease,"solid neoplasia; one dog-patient, metastatic popliteal lymph node",occult disease was identified; also recorded: identification of occult disease
